Where two headings read alike, the source gives them in different places.

In series [1] the test system is tuberculosis bacilli in the lungs. Put plainly: Chronic murine infection model, efficacy versus duration of infection. The format is in vivo, mouse.
The subject of series [2] is MTB strain H37Rv. The format is cell-based, Mycobacterium tuberculosis.
In series [3] the test system is MTB strain H37Rv. In kind it is cell-based, Mycobacterium tuberculosis. The source holds these as a separate data set.
The test system of series [4] is MTB strain H37Rv. The format is cell-based, Mycobacterium tuberculosis. The source holds these as a separate data set.
Series [5] concerns MTB. The following applies: against MTB; cited from earlier work.
For series [6] the following is noted: renal and ototoxicity, parenteral use; cited from earlier work.
The conditions of series [7]: cited from earlier work.
The test system of series [8] is MTB strain H37Rv. Details: species or system C57/BL6 mice. The following applies: mouse, in vivo.
For series [9] the following is noted: cited from earlier work. This is another data set of the same source.
[10] abbreviates: 10 times MIC, after 18-24 hours of incubation, stationary phase.

Consider `NNC(=O)c1ccncc1` [isoniazid], for which the “reduction of bacillary load in the lungs” value in [1] (13 weeks post infection) was 0.5 logs. In series [1] (two weeks post infection), the “reduction of lung CFU” value came to 2 logs. Further, in [2], the “time at which an effect begins” value amounted to 48 h. Also, the “RLU reduction, stationary phase” value in [2] (setting [10]) is “no significant effect”. For the same compound, in series [3], the “reduction of CFUs” value is on record as “no effect”. Besides, in series [4], the “decrease in RLU from untreated cultures at peak efficacy” value (shortened to “decrease in RLU from untreated cultures”) was ~1.5 log and the “time of peak efficacy (RLU endpoint)” value was found to be 72 h.

On to `CO[C@H]1/C=C/O[C@@]2(C)Oc3c(C)c(O)c4c(O)c(c(/C=N/N5CCN(C)CC5)c(O)c4c3C2=O)NC(=O)/C(C)=C\C=C\[C@H](C)[C@H](O)[C@@H](C)[C@@H](O)[C@@H](C)[C@H](OC(C)=O)[C@@H]1C` [rifampicin], for which the “RLU reduction, stationary phase” value in [2] is reported as 0.3 logs. In addition, the “reduction of CFUs” value in [3] is listed as 0.5 logs. Besides, in series [4], the “RLU reduction, log phase growth” value was 2.25 logs and the “decrease in RLU from untreated cultures” value came out at 3.5 log.

Consider Capreomycin, for which the “minimum inhibitory concentration (MIC)” value in series [5] was 2.5 µg/mL. The “patients in whom toxicities occur” value in series [6] was “up to 10 % of patients”. For the same compound, the “RLU reduction, stationary phase” value in series [2] (setting [10]) is “approximately 2 logs”. Moreover, the “reduction in efficacy from log phase cultures” value in series [2] (stationary versus log phase, RLU at 24 hrs) is recorded as ~15%. The “reduction of CFUs” value in series [3] came out at 2.5 logs. Besides, the “maximum serum concentration (Cmax)” value in series [7] (human, reached two hours after intramuscular injection) is 25000 ng/mL. Also, the oral absorption entry in series [7] (oral) was “quite poor”. The “reduction in lung CFU, aerosol treated group” value in [8] was ~2.5 logs. In [8] (sc), the “reduction in lung CFU, subcutaneous administered group” value was determined as 1 log. In addition, in [4], the “RLU reduction, log phase growth” value is recorded as “approximately 2 logs”; the “decrease in RLU from untreated cultures” value came out at 3.5 log; the “efficacy compared with isoniazid and rifampicin” value is “superior to that of isoniazid and is as efficacious as rifampicin”. Also, the solubility in water result in [9] was “soluble in water”.

Source of the values: patent US20070128124A1 (published 2007).
